Measured values as given in patent US7157079B2, “Combined tumor suppressor gene therapy and chemotherapy in the treatment of neoplasms” (priority 1997, dated 2007).

Key:
[1] = tested on: MRC-9 diploid fibroblast cells; test: 3H-thymidine incorporation growth assay in normal cells; type: cell-based; conditions: MRC-9 vs tumor cells; FIG. 9
Experimental: In a second experiment, the efficacy of treatment of normal cells (MRC-9 cells) was compared with tumor cells (FIG. 9). In this experiment, growth was assayed as ^3H-thymidine incorporation rather than the MTT assay. […] As would be expected, the effect of tumor suppressor alone was negligible in normal cells and highly significant in tumor cells.

[2] = tested on: SK-OV-3 ovarian tumor cells; test: MTT cell death assay, p53 adenovirus combined with anti-cancer drug; type: cell-based, human; conditions: FIG. 1, TAXOL 0.001-20 μg/ml, p53 Ad 0.5-50 m.o.i., MTT on day 3
Experimental: In treatment three, the cells were contacted simultaneously with both the TAXOL® and the p53 adenovirus. Thus, the p53 Ad and TAXOL® can be administered within the same twenty four (24) hour period or concurrently.
Approximately 1.5×10^4 cells in culture medium (head and neck cell lines SCC-9, SCC-15, and SCC-25 in 1:1 mix of DMEM+ Ham's F12 media with 0;4 μg/ml cortisol and 10% FBS and 1% non-essential amino acids, prostate DU-145 and Ovarian SK-OV-3 in Eagles essential medium plus 10% FBS) were added to each well on a 96 well microtitre plate and cultured for about 4 hours at 37° C. and 5% CO2.
Cell death was then quantitated according to the method of Mosmann (1983) J. Immunol. Meth., 65: 55–63.
Dosing was performed as described above. Cell death was quantitated on day 3 using the MTT assay as described above. In addition, a dose response curve for p53 Ad alone (using the doses listed in Table 2) was generated (after […] cell exposure to the drug) and a dose response curve for TAXOL® alone was performed using the doses listed above (3 day cell exposure to the drug).
All cell lines were obtained from ATCC (Rockville, Md.). […]

[3] = tested on: intraperitoneal SK-OV-3 tumors; test: SK-OV-3 ovarian tumor model, cisplatin efficacy; type: in vivo, scid mice; conditions: day 20
Experimental: There were normally ten mice per group.
Established intraperitoneal SK-OV-3 tumors were treated with intraperitoneal doses of vehicles, p53 Ad, cisplatin, or both drugs. Mice were given six injections of p53 Ad over a period of two weeks. The total virus dose was 1.5×10^9 C.I.U. (3.1×10^10 viral particles).
Cisplatin efficacy: Female scid mice were injected with 5×10^6 SK-OV-3 ovarian tumor cells, I.P., on day 0. Mice were dosed I.P. on days 6, 8, 10, 13, 15, and 17 (p53 Ad only on D17). Mice received 0.2 ml total volume (0.1 ml cisplatin vehicle or cisplatin plus 0.1 ml Ad buffer or p53 Ad). The p53 Ad dose was 2.5×10^8 C.I.U./mouse/day (5.2×10^9 viral particles). The cisplatin dose was 2 mg/kg/day. Tumors were harvested and weighed on day 20.

MDA-MB-231 tumors = test: Tumor growth with adenovirus in the absence or presence of low dose dexamethasone; conditions: s.c. pellet releasing 83.3 μg dexamethasone/day
Experimental: To investigate whether the immunosuppressant properties of low dose Dexamethasone (Dex) can inhibit the anti-adenovirus immune response (e.g., NK cell response) MDA-MB-231 tumors in scid mice were treated with recombinant virus of the invention in the absence and in the presence of dexamethasone.
Approximately 5×10^6 MDA-MB-231 cells/mouse were injected into the mammary fat pads of female scid mice on day 0. On day 11, dexamethasone or placebo pellets were implanted subcutaneously. The 5 mg pellets were designed to release 83.3 μg dexamethasone/day continuously for 60 days (Innovative Research of America, Sarasota, Fla.). All mice received a total of 10 peritumoral injections given once a day on days 14–18 and 21–25 (0.1 ml per injection).

SMILES: O=c1[nH]cc(F)c(=O)[nH]1 [5-FU, 5-fluorouracil]
- effect of anti-cancer chemotherapeutic alone, normal vs cancer cells [1]: more effective in normal cells than cancer cells

SMILES: CC(=O)O[C@H]1C(=O)[C@@]2(C)[C@H]([C@H](OC(=O)c3ccccc3)[C@]3(O)C[C@H](OC(=O)[C@H](O)[C@@H](NC(=O)c4ccccc4)c4ccccc4)C(C)=C1C3(C)C)[C@]1(OC(C)=O)CO[C@@H]1C[C@@H]2O [TAXOL ®, paclitaxel]
- inhibition of cell proliferation (as compared to the buffer control) [2]: decreased the rate of cell proliferation

SMILES: N.N.[Cl][Pt][Cl] [cisplatin]
- effect of anti-cancer chemotherapeutic alone, normal vs cancer cells [1]: more effective in normal cells than cancer cells
- bloody ascites and invasive tumor nodules in the diaphragm muscle [3]: absent

SMILES: C[C@@H]1C[C@H]2[C@@H]3CCC4=CC(=O)C=C[C@]4(C)[C@@]3(F)[C@@H](O)C[C@]2(C)[C@@]1(O)C(=O)CO [dexamethasone]
- adverse side effects (MDA-MB-231 tumors): No adverse side effects
- effect on the growth rate of tumors (MDA-MB-231 tumors): no significant effect

SMILES: COc1cccc2c1C(=O)c1c(O)c3c(c(O)c1C2=O)C[C@@](O)(C(=O)CO)C[C@@H]3O[C@H]1C[C@H](N)[C@H](O)[C@H](C)O1 [doxorubicin]
- effect of anti-cancer chemotherapeutic alone, normal vs cancer cells [1]: more effective in normal cells than cancer cells

SMILES: COc1cc([C@@H]2c3cc4c(cc3[C@@H](O[C@@H]3O[C@@H]5CO[C@@H](C)O[C@H]5[C@H](O)[C@H]3O)[C@H]3COC(=O)[C@H]23)OCO4)cc(OC)c1O [etoposide]
- effect of anti-cancer chemotherapeutic alone, normal vs cancer cells [1]: more effective in normal cells than cancer cells

SMILES: CN(Cc1cnc2nc(N)nc(N)c2n1)c1ccc(C(=O)N[C@@H](CCC(=O)O)C(=O)O)cc1 [methotrexate]
- effect of anti-cancer chemotherapeutic alone, normal vs cancer cells [1]: more effective in normal cells than cancer cells
